Experimental data taken from ChEMBL document CHEMBL3875189, “A benzo[b]thiophene-based selective type 4 S1P receptor agonist” (Bioorg Med Chem Lett, 2017).
pEC50: −log10 of the molar value. Activity calls are given as the source filed them. No cut-off for these calls is given here.

Assays:
[1] = target: T1, Sphingosine 1-phosphate receptor 4 (Homo sapiens, UniProt O95977); assay: Agonist activity at recombinant human S1PR4 expressed in CHO cell membranes assessed as [35S]GTP-gammaS binding measured after 1.5 hrs by TopCount scintillation counting method
T1 sequence (O95977 whole entry): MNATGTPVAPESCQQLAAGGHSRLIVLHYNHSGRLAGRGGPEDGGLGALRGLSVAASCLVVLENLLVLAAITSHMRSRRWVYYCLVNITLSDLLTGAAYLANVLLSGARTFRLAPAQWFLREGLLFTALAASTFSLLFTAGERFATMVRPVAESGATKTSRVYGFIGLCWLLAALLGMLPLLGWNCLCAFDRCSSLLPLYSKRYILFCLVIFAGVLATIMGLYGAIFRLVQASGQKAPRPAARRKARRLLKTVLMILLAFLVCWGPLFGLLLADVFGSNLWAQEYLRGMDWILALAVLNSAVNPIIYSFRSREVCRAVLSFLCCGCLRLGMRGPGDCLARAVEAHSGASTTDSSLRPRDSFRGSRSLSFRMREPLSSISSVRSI

[2] = target: T2, Sphingosine 1-phosphate receptor 5 (Homo sapiens, UniProt Q9H228); assay: Agonist activity at recombinant human S1PR5 expressed in CHO cell membranes assessed as [35S]GTP-gammaS binding measured after 1.5 hrs by TopCount scintillation counting method
T2 sequence (Q9H228 whole entry): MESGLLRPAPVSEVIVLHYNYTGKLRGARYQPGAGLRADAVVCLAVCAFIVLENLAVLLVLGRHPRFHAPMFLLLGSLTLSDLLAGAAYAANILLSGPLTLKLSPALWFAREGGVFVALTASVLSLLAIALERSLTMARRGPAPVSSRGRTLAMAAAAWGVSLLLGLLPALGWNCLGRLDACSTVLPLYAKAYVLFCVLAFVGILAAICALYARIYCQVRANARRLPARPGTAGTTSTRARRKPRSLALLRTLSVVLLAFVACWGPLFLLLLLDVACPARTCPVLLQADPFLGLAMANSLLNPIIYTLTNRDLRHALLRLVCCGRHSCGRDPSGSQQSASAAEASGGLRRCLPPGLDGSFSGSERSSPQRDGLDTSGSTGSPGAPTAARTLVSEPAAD

[3] = target: T2, Sphingosine 1-phosphate receptor 5; assay: Agonist activity at recombinant human S1PR5 expressed in CHO cell membranes assessed as [35S]GTP-gammaS binding measured after 1.5 hrs by TopCount scintillation counting method relative to S1P
[4] = target: Sphingosine 1-phosphate receptor 2 (Homo sapiens, UniProt O95136); assay: Agonist activity at recombinant human S1PR2 expressed in CHO cell membranes assessed as [35S]GTP-gammaS binding measured after 1.5 hrs by TopCount scintillation counting method
Sequence of Sphingosine 1-phosphate receptor 2 (O95136 whole entry): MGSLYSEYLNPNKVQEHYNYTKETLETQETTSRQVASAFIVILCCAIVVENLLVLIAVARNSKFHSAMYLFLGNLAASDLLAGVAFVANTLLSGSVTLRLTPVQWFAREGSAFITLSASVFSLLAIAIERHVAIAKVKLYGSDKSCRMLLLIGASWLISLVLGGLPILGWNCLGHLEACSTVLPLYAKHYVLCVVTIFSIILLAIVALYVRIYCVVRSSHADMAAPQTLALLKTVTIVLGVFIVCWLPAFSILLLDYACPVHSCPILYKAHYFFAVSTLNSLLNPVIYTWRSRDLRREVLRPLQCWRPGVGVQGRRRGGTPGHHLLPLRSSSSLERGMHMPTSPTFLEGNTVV

[5] = target: T3, Sphingosine 1-phosphate receptor 1 (Homo sapiens, UniProt P21453); assay: Agonist activity at recombinant human S1PR1 expressed in CHO cell membranes assessed as [35S]GTP-gammaS binding measured after 1.5 hrs by TopCount scintillation counting method
T3 sequence (P21453 whole entry): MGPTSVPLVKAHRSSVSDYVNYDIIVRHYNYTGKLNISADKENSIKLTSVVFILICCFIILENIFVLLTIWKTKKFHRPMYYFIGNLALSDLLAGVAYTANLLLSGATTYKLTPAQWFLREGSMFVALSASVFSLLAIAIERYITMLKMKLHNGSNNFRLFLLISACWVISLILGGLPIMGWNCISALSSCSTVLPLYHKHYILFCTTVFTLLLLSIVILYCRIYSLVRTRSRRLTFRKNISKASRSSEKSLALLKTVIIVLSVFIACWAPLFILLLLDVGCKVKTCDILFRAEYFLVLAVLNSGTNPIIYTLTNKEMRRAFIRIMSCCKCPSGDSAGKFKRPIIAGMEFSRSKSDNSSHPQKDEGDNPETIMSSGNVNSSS

[6] = target: Sphingosine 1-phosphate receptor 3 (Homo sapiens, UniProt Q99500); assay: Agonist activity at recombinant human S1PR3 expressed in CHO cell membranes assessed as [35S]GTP-gammaS binding measured after 1.5 hrs by TopCount scintillation counting method
Sequence of Sphingosine 1-phosphate receptor 3 (Q99500 whole entry): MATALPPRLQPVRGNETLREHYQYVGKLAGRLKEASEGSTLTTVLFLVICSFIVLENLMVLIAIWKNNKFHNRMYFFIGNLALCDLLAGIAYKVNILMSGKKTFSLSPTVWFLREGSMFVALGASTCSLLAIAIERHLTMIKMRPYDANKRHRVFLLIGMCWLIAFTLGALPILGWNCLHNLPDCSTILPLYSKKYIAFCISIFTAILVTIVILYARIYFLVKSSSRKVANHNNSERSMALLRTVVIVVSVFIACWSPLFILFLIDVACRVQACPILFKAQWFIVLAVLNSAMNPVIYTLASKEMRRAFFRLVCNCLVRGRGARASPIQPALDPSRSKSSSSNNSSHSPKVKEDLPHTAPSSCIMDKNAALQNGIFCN

[7] = target: T2, Sphingosine 1-phosphate receptor 5; assay: Activation of human S1PR5 expressed in CHO cells assessed as suppression of forskolin-induced intracellular cAMP level at 1 to 10 uM measured after 15 mins by ELISA; assay type: functional, cell-based
[8] = target: T3, Sphingosine 1-phosphate receptor 1; assay: Activation of human S1PR1 expressed in CHO cells assessed as ERK1/2 phosphorylation at 1 to 10 uM treated under serum-free condition post 1 day serum starvation measured after 10 to 30 mins by Western blot analysis; assay type: cell-based
[9] = target: T3, Sphingosine 1-phosphate receptor 1; assay: Activation of human S1PR1 expressed in CHO cells assessed as suppression of forskolin-induced intracellular cAMP level at 1 to 10 uM measured after 15 mins by ELISA; assay type: functional, cell-based

Row | pEC50 [1] | pEC50 [2] | Efficacy [3] | further results | SMILES
1 | < 4.00 | < 4.00 |  |  | O=C(O)Cc1ccc(NCc2cc3cc(-c4ccc5ccccc5c4)ccc3s2)cc1
2 | < 4.00 | < 4.00 |  |  | CCc1ccccc1-c1cccc2cc(CN3CC(C(=O)O)C3)sc12
3 | 5.72 | 6.26 | 15% |  | O=C(O)CCCNCc1cc2cccc(-c3ccc(C(F)(F)F)cc3)c2s1
4 | < 4.00 | 6.11 | 12% |  | O=C(O)Cc1cccc(NCc2cc3cc(-c4ccc5ccccc5c4)ccc3s2)c1
5 | 4.99 | < 4.00 |  |  | CCc1ccccc1-c1cccc2sc(CNCC(C)C(=O)O)cc12 (configuration not stated)
6 | 6.14 | 6.15 | 54% |  | O=C(O)CCCCNCc1cc2cc(-c3ccc4ccccc4c3)ccc2s1
7 | < 4.00 | 5.17 | 11% |  | CCc1ccccc1-c1cccc2sc(CNCc3ccc(C(=O)O)cc3)cc12
8 |  | 5.67 | 23% |  | O=C(O)Cc1cccc(NCc2cc3c(-c4ccc5ccccc5c4)cccc3s2)c1
9 | < 4.00 | 6.30 | 13% |  | O=C(O)C1CN(Cc2cc3cccc(-c4ccc5ccccc5c4)c3s2)C1
10 | 5.84 | 5.40 | 32% |  | O=C(O)Cc1ccc(NCc2cc3cccc(-c4ccc5ccccc5c4)c3s2)cc1
11 | < 4.00 | 5.59 | 15% |  | CCc1ccccc1-c1cccc2cc(CNCCC(=O)O)sc12
12 | 6.09 | 5.78 | 22% |  | O=C(O)Cc1cccc(NCc2cc3cccc(-c4ccc5ccccc5c4)c3s2)c1
13 | 6.00 | 6.76 | 14% |  | O=C(O)C1CN(Cc2cc3c(-c4ccc5ccccc5c4)cccc3s2)C1
14 | < 4.00 | 5.60 | 16% |  | CCc1ccccc1-c1cccc2cc(CNCCCCC(=O)O)sc12
15 | 5.59 | 5.32 | 9% |  | CCc1ccccc1-c1cccc2sc(CNc3ccc(CC(=O)O)cc3)cc12
16 | < 4.00 | < 4.00 |  |  | CCc1ccccc1-c1cccc2cc(CNCc3ccc(C(=O)O)cc3)sc12
17 | 4.95 | < 4.00 |  |  | CCc1ccccc1-c1cccc2sc(CNCCCCC(=O)O)cc12
18 | < 4.00 | < 4.00 |  |  | O=C(O)c1ccc(CNCc2cc3cc(-c4ccc5ccccc5c4)ccc3s2)cc1
19 | < 4.00 | 5.35 | 23% |  | O=C(O)c1ccc(CNCc2cc3cccc(-c4ccc5ccccc5c4)c3s2)cc1
20 | < 4.00 | 4.67 | 10% |  | CCc1ccccc1-c1cccc2sc(CN3CC(C(=O)O)C3)cc12

Row | pEC50 [1] | pEC50 [2] | Efficacy [3] | further results | SMILES
21 | < 4.00 | 6.45 | 53% | pEC50 [4]: < 4.00; pEC50 [5]: < 4.00; pEC50 [6]: < 4.00 | O=C(O)c1ccc(CNCc2cc3c(-c4ccc5ccccc5c4)cccc3s2)cc1
22 | < 4.00 | 7.66 | 50% | Activity [7]: Active; pEC50 [4]: < 4.00; Activity [8]: Active; Activity [9]: Active; pEC50 [5]: < 4.00; pEC50 [6]: < 4.00 | O=C(O)C1CN(Cc2cc3cc(-c4ccc5ccccc5c4)ccc3s2)C1
23 | 6.16 | 5.51 | 39% |  | O=C(O)CCCNCc1cc2cccc(-c3cccc(C(F)(F)F)c3)c2s1
24 | 7.42 | 7.60 | 78% |  | O=C(O)CCNCc1cc2cc(-c3ccc4ccccc4c3)ccc2s1
25 | 6.94 | 6.63 | 77% |  | CC(CNCc1cc2cc(-c3ccc4ccccc4c3)ccc2s1)C(=O)O (configuration not stated)
26 | 4.24 | < 4.00 |  |  | CCc1ccccc1-c1cccc2sc(CNCC(N)C(=O)O)cc12 (configuration not stated)
27 | < 4.00 | < 4.00 |  |  | CCc1ccccc1-c1cccc2sc(CNCCC(=O)O)cc12
28 | 6.33 | < 4.00 |  |  | CCc1ccccc1-c1cccc2sc(CNc3cccc(CC(=O)O)c3)cc12
29 | < 4.00 | < 4.00 |  |  | CCc1ccccc1-c1cccc2cc(CNCCCC(=O)O)sc12
30 | 6.68 | 7.22 | 69% | pEC50 [4]: < 4.00; pEC50 [5]: < 4.00; pEC50 [6]: < 4.00 | O=C(O)CCCNCc1cc2c(-c3ccc4ccccc4c3)cccc2s1
31 | 5.92 | 5.40 | 36% |  | CCc1ccccc1-c1cccc2cc(CNc3cccc(CC(=O)O)c3)sc12
32 | 6.19 | 7.29 | 47% | pEC50 [4]: < 4.00; pEC50 [5]: < 4.00; pEC50 [6]: < 4.00 | O=C(O)CNCc1cc2c(-c3ccc4ccccc4c3)cccc2s1
33 | 5.29 | 5.33 | 26% |  | CC(C)(C)c1ccc(-c2cccc3cc(CNCCCC(=O)O)sc23)cc1
34 | 4.70 | 5.55 | 43% |  | Cc1ccc(-c2cccc3cc(CNCCCC(=O)O)sc23)cc1
35 | 5.69 | 5.19 | 10% |  | O=C(O)CCCNCc1cc2cccc(-c3ccc(-c4ccccc4)cc3)c2s1
36 | 5.96 | 6.48 | 34% |  | NC(CNCc1cc2c(-c3ccc4ccccc4c3)cccc2s1)C(=O)O (configuration not stated)
37 | 5.97 | 6.82 | 47% | pEC50 [4]: < 4.00; pEC50 [5]: < 4.00; pEC50 [6]: < 4.00 | O=C(O)CCCCNCc1cc2c(-c3ccc4ccccc4c3)cccc2s1
38 | 6.39 | 6.39 | 37% |  | O=C(O)CCCCNCc1cc2cccc(-c3ccc4ccccc4c3)c2s1
39 | 6.73 | 6.55 | 36% |  | O=C(O)CCNCc1cc2cccc(-c3ccc4ccccc4c3)c2s1
40 | 4.74 | < 4.00 |  |  | CCc1ccccc1-c1cccc2sc(CNCCCC(=O)O)cc12

Row | pEC50 [1] | pEC50 [2] | Efficacy [3] | further results | SMILES
41 | 5.70 | 5.63 | 25% |  | O=C(O)CCCNCc1cc2cccc(-c3cccc4ccccc34)c2s1
42 | 6.46 | 6.46 | 63% |  | O=C(O)CNCc1cc2cc(-c3ccc4ccccc4c3)ccc2s1
43 | 5.47 | 5.68 | 20% |  | CCc1ccccc1-c1cccc2cc(CNc3ccc(CC(=O)O)cc3)sc12
44 | < 4.00 | 5.37 | 10% |  | CCc1ccccc1-c1cccc2cc(CNCC(C)C(=O)O)sc12 (configuration not stated)
45 | 5.99 | 6.05 | 32% |  | CC(CNCc1cc2cccc(-c3ccc4ccccc4c3)c2s1)C(=O)O (configuration not stated)
46 | 5.41 | 5.50 | 26% |  | O=C(O)CCCNCc1cc2cccc(-c3ccc4c(c3)OCO4)c2s1
47 | 6.16 | 5.97 | 35% |  | NC(CNCc1cc2cccc(-c3ccc4ccccc4c3)c2s1)C(=O)O (configuration not stated)
48 | 5.03 | 4.99 | 25% |  | Cc1cccc(-c2cccc3cc(CNCCCC(=O)O)sc23)c1
49 | 6.36 | 7.51 | 75% | pEC50 [4]: < 4.00; pEC50 [5]: < 4.00; pEC50 [6]: < 4.00 | O=C(O)CCNCc1cc2c(-c3ccc4ccccc4c3)cccc2s1
50 | < 4.00 | < 4.00 |  |  | CCc1ccccc1-c1cccc2sc(CNCC(=O)O)cc12
51 | 6.78 | 6.84 | 65% |  | O=C(O)CCCNCc1cc2cc(-c3ccc4ccccc4c3)ccc2s1
52 | 4.87 | 5.45 | 7% |  | Cc1ccccc1-c1cccc2cc(CNCCCC(=O)O)sc12
53 | < 4.00 | < 4.00 |  |  | O=C(O)Cc1ccc(NCc2cc3c(-c4ccc5ccccc5c4)cccc3s2)cc1
54 | 5.83 | 6.57 | 32% |  | O=C(O)CNCc1cc2cccc(-c3ccc4ccccc4c3)c2s1
55 | 5.51 | 5.81 | 25% |  | CCc1ccccc1-c1cccc2cc(CNCC(N)C(=O)O)sc12 (configuration not stated)
56 | 5.71 | < 4.00 |  |  | COc1ccc2cc(-c3cccc4cc(CNCCCC(=O)O)sc34)ccc2c1
57 | 6.48 | 7.31 | 18% |  | O=C(O)CCCNCc1cc2cccc(-c3cccc(-c4ccccc4)c3)c2s1
58 | 6.27 | 6.14 | 69% |  | NC(CNCc1cc2cc(-c3ccc4ccccc4c3)ccc2s1)C(=O)O (configuration not stated)
59 | < 4.00 | < 4.00 |  |  | CCc1ccccc1-c1cccc2cc(CNCC(=O)O)sc12
